# Data as given in PubChem BioAssay (NCI).
# Where “and” joins values, the source holds several entries; their conditions need not be identical. Equal entries are not always repeated.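 The compound was tested at five concentrations on cells cultured in 96-well plates, with a 48-hour exposure period. Abbreviation: GI50, concentration required for 50% inhibition of growth. TGI marks complete inhibition of growth.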
# Columns and labels:
# Assay in all cases: NCI anticancer screen, dose series, 48 h
# [1] = tested on: SK-MEL-5 melanoma
# [2] = tested on: OVCAR-4 ovarian
# [3] = tested on: 786-0 renal
# [4] = tested on: TK-10 renal
# [5] = tested on: NCI-H226 lung
# [6] = tested on: NCI/ADR-RES ovarian
# [7] = tested on: CAKI-1 renal
# [8] = tested on: RPMI-8226 leukemia
# [9] = tested on: COLO 205 colon
# [10] = tested on: MCF7 breast
# [11] = tested on: OVCAR-3 ovarian
# [12] = tested on: OVCAR-8 ovarian
Compound,TGI [1],TGI [2],TGI [3],TGI [4],TGI [5],TGI [6],TGI [7],TGI [8],TGI [9],TGI [10],TGI [11],TGI [12],GI50 [4],GI50 [1],GI50 [2],GI50 [5],GI50 [6],GI50 [7],GI50 [8]
Cc1cc(N(CCC#N)CCC#N)ccc1/C(N=Nc1ccccc1)=N\NC(=O)c1cc(Cl)ccc1O,46.5 µM,65.4 µM,70.3 µM,52.2 µM,> 100 µM,72.7 µM,> 100 µM,> 100 µM,39.1 µM,67.9 µM,72.8 µM,81.5 µM,,,,,,,
S=C1Cc2c(-c3ccccc3)cc(-c3cccc(Cl)c3)nc2-c2ccccc2N1,> 81.7 µM,1.21 µM,2.21 µM,1.9 µM,19.4 µM,8.32 µM,9.23 µM,56.2 µM,> 100 µM,> 58.1 µM,25.9 µM,4.39 µM,0.436 µM,,,,,,
[B]C(=O)NC(CC(C)C)C(=O)NCC(=O)NC1c2ccsc2C(=O)C1O (configuration not stated) (tested in a mixture with another compound),> 100 µM,> 100 µM,> 100 µM,> 100 µM,> 100 µM,> 100 µM,> 100 µM,> 100 µM,> 100 µM,> 100 µM,> 100 µM,> 100 µM,,,,,,,
COc1cc([C@@H]2c3cc4c(cc3[C@@H](Nc3ccc(NC(=O)c5cc([N+](=O)[O-])cn5C)cc3)[C@H]3COC(=O)[C@H]23)OCO4)cc(OC)c1O,0.183 µM and 0.316 µM,> 100 µM,0.29 µM and 0.261 µM,6.15 µM and 2.95 µM,0.29 µM,> 31.6 µM,0.204 µM and 0.338 µM,0.116 µM,2.61 µM and 1.3 µM,> 31.6 µM,10.7 µM and 3.15 µM,1.04 µM,,0.0291 µM and 0.0847 µM,11.6 µM and 4.09 µM,0.179 µM and 0.0249 µM,2.17 µM,0.0214 µM and 0.0725 µM,< 0.01 µM
C[C@@H](CC(=O)OCc1ccccc1)OC1OC(COC(=O)C(C)(C)C)C(OC(=O)C(C)(C)C)C(OC(=O)C(C)(C)C)C1OC(=O)C(C)(C)C (some centres not stated),> 100 µM,> 100 µM,> 100 µM,> 100 µM,> 100 µM,> 100 µM,> 100 µM,> 100 µM,> 100 µM,> 100 µM,> 100 µM,> 100 µM,,,,,,,
Oc1c(N2CCCCC2)cc(-c2cc(N3CCCCC3)c(O)c3ccccc23)c2ccccc12,34.6 µM,44.9 µM,45 µM,> 100 µM,> 100 µM,> 100 µM,> 100 µM,> 100 µM,67.6 µM,59.2 µM,> 100 µM,> 100 µM,,,,,,,
Cc1c(C)c2c(c(N)c1C#N)C(=O)N(Cc1ccc(S(N)(=O)=O)cc1)C2=O,> 100 µM,> 100 µM,> 56.5 µM,99.7 µM,> 62.9 µM,> 100 µM,> 100 µM,> 100 µM,> 100 µM,> 100 µM,> 63.2 µM,> 35.7 µM,,,,,,,
COc1cc(C2c3cc4c(cc3OC(NN)C2C)OCO4)cc(OC)c1O (configuration not stated),12.7 µM,> 100 µM,> 100 µM,90.6 µM,62 µM,94 µM,> 100 µM,17.8 µM,40.4 µM,> 100 µM,> 100 µM,67.8 µM,,,,,,,
O=C(NCCN(CCNC(=O)c1cccc(O)c1O)CCNC(=O)c1cccc(O)c1O)c1cccc(O)c1O,> 55.8 µM,> 100 µM,> 100 µM,> 100 µM,85.6 µM,> 100 µM,> 100 µM,> 59.7 µM,> 100 µM,> 100 µM,> 40.2 µM,49.4 µM,,,,,,,
C=C1CC[C@@H](CCC2CCC3(OC2)O[C@]2(O)CC[C@@]3(C)OC2(C)C)C(C)(C)[C@H]1C/C=C1\CCOC1=O (some centres not stated),4.93 µM,> 100 µM,31.3 µM,> 93.1 µM,35.2 µM,> 100 µM,> 88.1 µM,31.2 µM,35.3 µM,28.9 µM,54.8 µM,> 100 µM,,,,,,,
CC(C)(C)OC(=O)N(CCCCNC(=O)C(F)(F)F)CCCNC(=O)C(F)(F)F,> 100 µM,> 100 µM,> 100 µM,> 100 µM,> 100 µM,> 100 µM,> 100 µM,> 100 µM,> 100 µM,> 100 µM,> 100 µM,> 100 µM,,,,,,,
COC(=O)[C@@H]1[C@@H]2NC(=S)N[C@@]1(C)Oc1ccccc12,> 100 µM,> 100 µM,> 100 µM,> 100 µM,> 100 µM,> 100 µM,> 100 µM,> 100 µM,> 100 µM,> 100 µM,> 100 µM,> 100 µM,,,,,,,
CSC(=O)/C=C1\SS/C(=C\C(=O)SC)S1,6.79 µM,> 41.2 µM,4.03 µM,15.5 µM,3.41 µM,8.71 µM,4.25 µM,5.27 µM,30.6 µM,9.19 µM,11.2 µM,11.7 µM,,,,,,,
Cc1c(C)c(S(=O)(=O)N(CCCCN)OCCCN)c(C)c2c1OC(C)(C)CC2,> 100 µM,30 µM,31.9 µM,37.8 µM,30.1 µM,> 100 µM,> 100 µM,66.5 µM,> 100 µM,> 100 µM,30.6 µM,42 µM,,,,,,,
CC(=O)c1ccc(Nc2c3c(nc4ccccc24)CCCC3)cc1,> 59.2 µM,> 100 µM,> 100 µM,> 100 µM,> 100 µM,56.2 µM,> 44 µM,> 100 µM,> 51.1 µM,> 100 µM,> 44.7 µM,70.9 µM,,,,,,,
